In brackets after ≈: the same amount, converted by molar mass.
Key:
[1] = Solubility of active constituents in dendrimer solutions by HPLC (Example 26); assay type: physicochemical
Description: Four PEHAM dendrimers, each at 10 g/L and 100 g/L in water, were used for evaluation. A 15 g of each dendrimer was dissolved in distilled water and made accurately to 150 mL volume. Determination of pH was then made using a calibrated pH meter and electrode.
To prepare saturated solutions of active constituent in 100 g/L dendrimer solutions, 10 mL of each 100 g/L dendrimer solution was placed into a 50 mL test tube and 0.2 g of active constituent was then also added. The test tube was then briefly shaken to disperse the contents, before being placed in an ultrasonic water bath, and subjected to sonication for 30 mins at […] The test tube and contents were then cooled to […] and then a 2.0 mL aliquot was taken and filtered through a 0.45 μm PTFE membrane filter.
To prepare saturated solutions of active constituent in 10 g/L dendrimer solutions, 1.0 mL of each 100 g/L dendrimer solution was placed into a 50 mL test tube and a 9.0 mL aliquot of distilled water added and 0.2 g of active constituent was then also added. The test tube was then briefly shaken to disperse the contents, before being placed in an ultrasonic water bath, and subjected to sonication for 30 mins at […] The test tube and contents were then cooled to […] and then a 2.0 mL aliquot was taken and filtered through a 0.45 μm PTFE membrane filter
Each prepared and filtered solution was examined in a light box for Tyndall Scattering (light scattering by particles in a colloid or particles in a fine suspension). A visual observation was made and recorded for each solution. Ten active constituents that were selected to cover a range of water solubility were treated according to the method described here. A total of 200 filtered solutions were prepared.
High Performance Liquid Chromatography was used to analyse each active constituent in each dendrimer solution. Each saturated active constituent solution was freshly prepared for immediate analysis or frozen at <−15° C. where analysis could not take place within 2 hours of preparation. The following are details of the HPLC equipment used. For each active constituent a set of 4 calibration solutions was prepared 0 to 25 ppm. A sequence of injections comparing the peak area of the calibration solutions and the dendrimer solutions was then undertaken. The dendrimer solutions were diluted as required to maintain their respective peak area response within the calibration range. The active constituent concentration (ppm) in the dendrimer solution was determined by calculation: RF×SA×DF, where RF=Response Factor (concentration of calibration solution per unit of peak area, SA=Sample Peak Area (peak area of the sample solution), and DF=Dilution Factor (dilution of the sample solution). HPLC conditions were varied to ensure the optimum detection and separation of each active constituent from excipients.

[2] = tested on: Avena sativa (cv. Echidna); assay: Brownout of oat seedlings after track-sprayer application (Example 21); assay type: in vivo; settings: concentrations of 0.1% v/v and above; with GrowChoice 450 g/L glyphosate
Description: The experiment tested whether the addition of dendrimers at various concentrations increased penetration into plant tissue and thus improved the rate of kill utilizing the herbicide glyphosate IPA (GrowChoice® 450 g/L present as the isopropylamine salt). Oats were selected for assessment of glyphosate efficacy because there is less genetic variation. All dosing was carried out at sublethal doses in order to witness a dose effect which is enhanced with dendrimer. A standard dose in the positive control would result in death of the oats and would be presumably replicated in the dendrimer treatments.
Avena sativa (cv. Echidna) was sown in 10 cm diameter pots filled with potting mix (AS 3743). Enough seeds were planted to ensure a minimum of seven seedlings per treatment group. Seeds were germinated in a temperature-controlled greenhouse (14° C.-25° C.) for 7 days. […]
The herbicide, glyphosate IPA (GrowChoice® 450 g/L present as the isopropylamine salt), was applied using an enclosed laboratory track-sprayer fitted with three 110° flat fan nozzles (Teejet XR11001-VS) spaced at 50 cm intervals across the boom. […] A total of 5 concentrations of the Example 2 G1-OH dendrimer (0.01, 0.05, 0.1, 0.2 & 0.5% v/v) were evaluated for enhancement of herbicidal effect at each of the rates of glyphosate tested (35, 70, 140 & 280 g ai/ha).
After 10 days the treated plants were assessed for % brownout. […]

physchem = assay type: physicochemical; settings: water; at pH 7; trifluralin control without dendrimer; read-out: Solubility assessment by GC assay
Description: To a 10% w/w solution of agrochemical active dissolved in a suitable volatile organic solvent, (e.g., MeOH, DCM, EtOH, acetone or other appropriate solvent) was added a 10% w/w solution of dendrimer in either water or the same organic solvent as above. The mixture was left to stir for 2-4 h after which time the volatile organic solvent was then removed under reduced pressure to provide a 1:1 mixture of the active and dendrimer. This oily solution was then dissolved in water and filtered. Analysis of active content in the aqueous solution by HPLC or GC assay provided an estimate of the solubility increase due to the addition of the dendrimer.

Compound: CCC(COCC(O)CN(CCO)CCO)(COCC(O)CN(CCO)CCO)COCC(O)CN(CCO)CCO (stereo not shown) [Example 2, [(C)=TMPTGE; (FF)=Et; (IF1)=OH; (BR1)=DEA; (TF)=OH; G=1]]
- Ratio of Active Ingredient in Dendrimer Solution (ppm) to Active Ingredient in Water (ppm) ([1]; 6-BAP, 10 g/L loading): 4
- Ratio of Active Ingredient in Dendrimer Solution (ppm) to Active Ingredient in Water (ppm) ([1]; 6-BAP, 100 g/L loading): 967
- Ratio of Active Ingredient in Dendrimer Solution (ppm) to Active Ingredient in Water (ppm) ([1]; Bifenthrin, 10 g/L loading): 1
- Ratio of Active Ingredient in Dendrimer Solution (ppm) to Active Ingredient in Water (ppm) ([1]; Bifenthrin, 100 g/L loading): 1
- Ratio of Active Ingredient in Dendrimer Solution (ppm) to Active Ingredient in Water (ppm) ([1]; Clomazone, 10 g/L loading): 1
- Ratio of Active Ingredient in Dendrimer Solution (ppm) to Active Ingredient in Water (ppm) ([1]; Clomazone, 100 g/L loading): 1
- Ratio of Active Ingredient in Dendrimer Solution (ppm) to Active Ingredient in Water (ppm) ([1]; Flumetsulam, 10 g/L loading): 2
- Ratio of Active Ingredient in Dendrimer Solution (ppm) to Active Ingredient in Water (ppm) ([1]; Flumetsulam, 100 g/L loading): 4
- Ratio of Active Ingredient in Dendrimer Solution (ppm) to Active Ingredient in Water (ppm) ([1]; Mcylobutanil, 10 g/L loading): 2
- Ratio of Active Ingredient in Dendrimer Solution (ppm) to Active Ingredient in Water (ppm) ([1]; Mcylobutanil, 100 g/L loading): 4
- Ratio of Active Ingredient in Dendrimer Solution (ppm) to Active Ingredient in Water (ppm) ([1]; Penconazole, 10 g/L loading): 2
- Ratio of Active Ingredient in Dendrimer Solution (ppm) to Active Ingredient in Water (ppm) ([1]; Penconazole, 100 g/L loading): 43
- Ratio of Active Ingredient in Dendrimer Solution (ppm) to Active Ingredient in Water (ppm) ([1]; Pendimethalin, 10 g/L loading): 1
- Ratio of Active Ingredient in Dendrimer Solution (ppm) to Active Ingredient in Water (ppm) ([1]; Pendimethalin, 100 g/L loading): 6
- Ratio of Active Ingredient in Dendrimer Solution (ppm) to Active Ingredient in Water (ppm) ([1]; Propaquizafop, 10 g/L loading): 1
- Ratio of Active Ingredient in Dendrimer Solution (ppm) to Active Ingredient in Water (ppm) ([1]; Propaquizafop, 100 g/L loading): 1
- Ratio of Active Ingredient in Dendrimer Solution (ppm) to Active Ingredient in Water (ppm) ([1]; Thiamethoxam, 10 g/L loading): 2
- Ratio of Active Ingredient in Dendrimer Solution (ppm) to Active Ingredient in Water (ppm) ([1]; Thiamethoxam, 100 g/L loading): 2
- Ratio of Active Ingredient in Dendrimer Solution (ppm) to Active Ingredient in Water (ppm) ([1]; Thidiazuron, 10 g/L loading): 7
- Ratio of Active Ingredient in Dendrimer Solution (ppm) to Active Ingredient in Water (ppm) ([1]; Thidiazuron, 100 g/L loading): 39
- rate of brownout [2]: did enhance the rate of brownout

Compound: CCCN(CCC)c1c([N+](=O)[O-])cc(C(F)(F)F)cc1[N+](=O)[O-] [trifluralin]
- solubility (physchem): 0.22 µg/mL (≈ 0.656 µM)
